Reference: US7307097B2, “Chemical compounds” (SmithKline Beechman Corporation, priority 2001, dated 2007)

Biological target: Recombinant GST-Tie2 (Homo sapiens, UniProt Q02763)
Assay: Tie2 fluorescence polarization kinase activity assay (TIE2-FP)
Type: biochemical
Settings: 200 μM ATP, activated enzyme; read-out: TIE2-FP pIC50 (converted)
Description: Tie2 Fluorescence Polarization Kinase Activity Assay (TIE2-FP) Activation of Recombinant Tie2 Activation: Recombinant GST-Tie2 is activated by incubating the enzyme in 20 mM Tris-HCl, pH7.5, 12 mM MgCl2, 100 mM NaCl, 20 μM sodium vanidate, 1 mM DTT and 300 μM ATP at room temperature for 2 hours. The activation mixture is then passed through a NAP-25 desalting column (Pharmacia Biotech cat. no. 17-0852-02) to remove the free ATP. The activated enzyme is stored as aliquots at−80° C. in 20mM Tris-HCl, pH7.5 and 100 mM NaCl. Assay Conditions: The final assay conditions are 50 mM HEPES, pH7.5, 5% DMSO (when screening compounds), 200 μM ATP, 5mM MgCl2, 1 mM DTT, 50 μM sodium vanidate, 1 nM activated enzyme, and 200 μM peptide. IC50's of compounds are measured under subsaturating ATP (200 μM) and varing concentrations of activated Tie2 and peptide substrate (RFWKYEFWR-OH; MW 1873 Da, TFA salt). Panvera Anti-phosphotyrosine antibody (Cat#P2840) and PTK Green Tracer (Cat#P2842) are used to detect the phosphorylated peptide. Polarization is measured on a TECAN Polarion in 138-second cycles for 30 minutes at room temperature. IC50's are then determined from the % polarization using normal calculation methods. The IC50 values are converted to pIC50 values, i.e.,−log IC50 in Molar concentration.

Recombinant GST-Tie2, sequence (Q02763 23-1124): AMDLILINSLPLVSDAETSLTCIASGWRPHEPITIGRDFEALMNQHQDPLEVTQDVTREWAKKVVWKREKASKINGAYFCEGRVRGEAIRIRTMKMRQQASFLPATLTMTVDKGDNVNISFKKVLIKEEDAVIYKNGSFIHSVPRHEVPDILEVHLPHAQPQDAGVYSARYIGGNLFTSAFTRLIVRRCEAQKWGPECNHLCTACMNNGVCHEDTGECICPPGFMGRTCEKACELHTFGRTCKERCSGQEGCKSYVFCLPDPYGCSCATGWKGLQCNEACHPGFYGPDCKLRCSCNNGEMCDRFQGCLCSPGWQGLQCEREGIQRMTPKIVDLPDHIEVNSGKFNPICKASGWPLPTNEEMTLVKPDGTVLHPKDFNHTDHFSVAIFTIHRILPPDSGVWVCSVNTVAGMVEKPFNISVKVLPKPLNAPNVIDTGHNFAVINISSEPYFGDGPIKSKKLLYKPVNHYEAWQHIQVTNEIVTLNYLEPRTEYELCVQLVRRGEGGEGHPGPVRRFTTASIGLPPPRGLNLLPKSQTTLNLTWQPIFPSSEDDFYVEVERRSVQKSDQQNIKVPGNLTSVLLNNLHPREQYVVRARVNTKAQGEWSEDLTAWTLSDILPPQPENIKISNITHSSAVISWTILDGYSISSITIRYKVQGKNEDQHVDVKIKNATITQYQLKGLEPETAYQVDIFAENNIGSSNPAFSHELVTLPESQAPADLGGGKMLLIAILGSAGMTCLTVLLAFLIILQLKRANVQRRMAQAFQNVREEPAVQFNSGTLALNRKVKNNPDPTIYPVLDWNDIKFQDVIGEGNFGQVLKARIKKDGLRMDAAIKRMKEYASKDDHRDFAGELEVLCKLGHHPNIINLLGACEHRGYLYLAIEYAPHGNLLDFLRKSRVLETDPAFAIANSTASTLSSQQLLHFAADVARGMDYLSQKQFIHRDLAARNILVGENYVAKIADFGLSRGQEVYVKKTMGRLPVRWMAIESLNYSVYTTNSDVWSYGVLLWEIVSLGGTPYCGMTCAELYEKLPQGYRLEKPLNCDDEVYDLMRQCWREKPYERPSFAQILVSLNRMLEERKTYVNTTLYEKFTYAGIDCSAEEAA

Compound	IC50
Cc1cccc(NC(=O)Nc2ccc(-c3nn(C)c(N)c3C(N)=O)cc2)c1 [Example 14, 5-Amino-1-methyl-3-[4-(3-m-tolyl-ureido)-phenyl]-1H-pyrazole-4-carboxylic acid amide]	100 to 1000 nM
CC(C)(C)n1nc(-c2ccc(NC(=O)Nc3cc(F)ccc3F)cc2)c(C(N)=O)c1N [Example 30, 5-Amino-1-tert-butyl-3-{4-[3-(2,5-difluoro-phenyl)-ureido]-phenyl}-1H-pyrazole-4-carboxylic acid amide]	100 to 1000 nM
CC(C)(C)n1nc(-c2ccc(NC(=O)Nc3ccc4c(c3)OCO4)cc2)c(C(N)=O)c1N [Example 27, 5-Amino-3-[4-(3-benzo[1,3]dioxol-5-yl-ureido)-phenyl]-1-tert-butyl-1H-pyrazole-4-carboxylic acid amide]	100 to 1000 nM
COc1ccc(NC(=O)Nc2ccc(-c3nn(C)c(N)c3C(N)=O)cc2)c(OC)c1 [Example 16, 5-amino-3-{4-[3-(2,4-dimethoxy-phenyl)-ureido]-phenyl}-1-methyl-1H-pyrazole-4-carboxylic acid amide]	1000 to 10000 nM
CC(C)(C)n1nc(-c2ccc(NC(=O)Nc3ccc(Oc4ccccc4)cc3)cc2)c(C(N)=O)c1N [Example 32, 5-Amino-1-tert-butyl-3-{4-[3-(4-phenoxy-phenyl)-ureido]-phenyl}-1H-pyrazole-4-carboxylic acid amide]	100 to 1000 nM
CC(C)(C)n1nc(-c2ccc(NC(=O)Nc3ccc4ccccc4c3)cc2)c(C(N)=O)c1N [Example 23, 5-Amino-1-tert-butyl-3-[4-(3-naphthalen-2-yl-ureido)-phenyl]-1H-pyrazole-4-carboxylic acid amide]	< 100 nM
NC(=O)c1c(-c2ccc(NC(=O)Nc3cc(C(F)(F)F)ccc3F)cc2)n[nH]c1N [Example 33, 5-Amino-3-{4-[3-2-(fluoro-5-trifluoromethyl-phenyl)-ureido]-phenyl}-1H-pyrazole-4-carboxylic acid amide]	< 100 nM
Cn1nc(-c2ccc(NC(=O)Nc3cccc(C(F)(F)F)c3)cc2)c(C(N)=O)c1N [Example 9, 5-Amino-1-methyl-3-{4-[3-(3-trifluoromethyl-phenyl)-ureido]-phenyl}-1H-pyrazole-4-carboxylic acid amide]	< 100 nM
Cc1ccccc1NC(=O)Nc1ccc(-c2nn(C)c(N)c2C(N)=O)cc1 [Example 13, 5-Amino-1-methyl-3-[4-(3-o-tolyl-ureido)-phenyl]-1H-pyrazole-4-carboxylic acid amide]	1000 to 10000 nM
CC(C)(C)n1nc(-c2ccc(NC(=O)Nc3cccc(Cl)c3)cc2)c(C(N)=O)c1N [Example 21, 5-Amino-1-tert-butyl-3-{4-[3-(3-chloro-phenyl)-ureido]-phenyl}-1H-pyrazole-4-carboxylic acid amide]	< 100 nM
COc1ccc(NC(=O)Nc2ccc(-c3nn(C(C)(C)C)c(N)c3C(N)=O)cc2)c(OC)c1 [Example 31, 5-Amino-1-tert-butyl-3-{4-[3-(2,4-dimethoxyo-phenyl)-ureido]-phenyl}-1H-pyrazole-4-carboxylic acid amide]	1000 to 10000 nM
Cn1nc(-c2ccc(NC(=O)Nc3ccc4c(c3)OCO4)cc2)c(C(N)=O)c1N [Example 12, 5-Amino-3-[4-(3-benzo[1,3]dioxol-5-yl-ureido)-phenyl]-1-methyl-1H-pyrazole-4-carboxylic acid amide]	1000 to 10000 nM
Cn1nc(-c2ccc(NC(=O)Nc3c(F)cccc3F)cc2)c(C(N)=O)c1N [Example 11, 5-Amino-3-{4-[3-(2,6-difluoro-phenyl)-ureido]-phenyl}-1-methyl-1H-pyrazole-4-carboxylic acid amide]	> 10000 nM
Cn1nc(-c2ccc(NC(=O)Nc3ccc(Oc4ccccc4)cc3)cc2)c(C(N)=O)c1N [Example 17, 5-Amino-1-methyl-3-{4-[3-(4phenoxy-phenyl)-ureido]-phenyl}-1H-pyrazole-4-carboxylic acid amide]	100 to 1000 nM
Cc1cccc(NC(=O)Nc2ccc(-c3nn(C(C)(C)C)c(N)c3C(N)=O)cc2)c1 [Example 29, 5-Amino-1-tert-butyl-3-[4-(3-m-tolyl-ureido)-phenyl]-1H-pyrazole-4-carboxylic acid amide]	< 100 nM
CC(C)(C)n1nc(-c2ccc(NC(=O)Nc3cc(Cl)ccc3Cl)cc2)c(C(N)=O)c1N [Example 22, 5-Amino-1-tert-butyl-3-{4-[3-(2,5-dichloro-phenyl)-ureido]-phenyl}-1H-pyrazole-4-carboxylic acid amide]	100 to 1000 nM
CC(C)(C)n1nc(-c2ccc(NC(=O)Nc3ccc(-c4ccccc4)cc3)cc2)c(C(N)=O)c1N [Example 25, 5-Amino-3-[4-(3-biphenyl-4-yl-ureido)-phenyl]-1-tert-butyl-1H-pyrazole-4-carboxylic acid amide]	100 to 1000 nM
